In US20040005537A1, “Method of identifying toxic agents using differential gene expression” (priority 2000, published 2004):

Tested on: rat heart tissue
Experiment: GENECALLING differential gene expression analysis after dosing of serotonin modulating agents
Format: in vivo, Sprague Dawley rats
Protocol: Control animals received sterile water or canola oil. The animals were sacrificed 24 hours following the last dose. Liver tissue was dissected from the animals, and total RNA was recovered from the dissected tissue. cDNA was prepared and the resulting samples were processed through using GENECALLING™ differential expression analysis as described in U.S. Pat. No. 5,871,697 and in Shimkets et al., Nature Biotechnology 17:798-803 (1999). The contents of these patents and publications are incorporated herein by reference in their entirety.
Thousands of gene fragments were initially found to be differentially expressed in rat heart tissue in response to serotonin modulating agents in. Genes fragments whose expression levels were modulated greater than ±1.5-fold were selected for further analysis.
Column 6 of Table 1, entitled “Function”, lists the type of classification assigned for the protein, based on its function. The 210 single nucleic acid sequences identified herein, are referred to herein as CARDIOTOX 1-210.

## CNCCC(Oc1ccc(C(F)(F)F)cc1)c1ccccc1 (stereo not shown) [fluoxetine]
CARDIOTOX 70
  Effects on Transcription Level: Novel gene fragment, 467 bp, 94% SI to mouse gelsolin [J04953]: −3.8 fold
CARDIOTOX 71
  Effects on Transcription Level: Novel gene fragment, 535 bp, 90% SI to mouse slow/cardiac troponin C [M29793]: −2.0 fold
CARDIOTOX 72
  Effects on Transcription Level: Novel gene fragment, 445 bp, 85% SI to human skeletal muscle alpha 2 actinin [M86406]: −1.6 fold
CARDIOTOX 73
  Effects on Transcription Level: Novel gene fragment, 246 bp, 89% SI to mouse ponsin-1 [AF078667]: −2.5 fold
CARDIOTOX 74
  Effects on Transcription Level: Novel gene fragment, 126 bp, 77% SI to human DNA sequence from cosmid V311G7, between markers DXS366 and DXS87 on chromosome X [Z69304]: +2.0 fold
CARDIOTOX 75
  Effects on Transcription Level: Novel gene fragment, 370 bp: −1.9 fold
CARDIOTOX 76
  Effects on Transcription Level: Novel gene fragment, 337 bp, 78% SI to novel human protein AHNAK [M80899]: −2.5 fold
CARDIOTOX 77
  Effects on Transcription Level: Novel gene fragment, 100 bp, 93% SI to human KIAA0750 protein [ABO18293]: −7.6 fold
CARDIOTOX 78
  Effects on Transcription Level: Novel gene fragment, 44 bp: −5.6 fold
CARDIOTOX 79
  Effects on Transcription Level: Novel gene fragment, 698 bp, 93% SI to mouse plenty-of-prolines-101 [AF062655]: −2.3 fold
CARDIOTOX 80
  Effects on Transcription Level: Novel gene fragment, 660 bp, 84% SI to mouse membrane protein TMS-2 [AF181685]: −4.1 fold
CARDIOTOX 81
  Effects on Transcription Level: Novel gene fragment, 115 bp: −8.1 fold
CARDIOTOX 82
  Effects on Transcription Level: Novel gene fragment, 294 bp, 95% SI to mouse Ndr1 related protein Ndr2 [AB033921]: −2.5 fold
CARDIOTOX 83
  Effects on Transcription Level: Novel gene fragment, 198 bp: +2.5 fold
CARDIOTOX 84
  Effects on Transcription Level: Novel gene fragment, 730 bp, 86% SI to mouse E800 [Y10968]: −1.8 fold
CARDIOTOX 85
  Effects on Transcription Level: Novel gene fragment, 294 bp, 98% SI to cysteine conjugate beta-lyase [S61960]: −1.8 fold
CARDIOTOX 86, GenBank A1243266
  Effects on Transcription Level: Aconitase: −3.9 fold
CARDIOTOX 87, GenBank M17422
  Effects on Transcription Level: Ribosomal protein L7: +2.7 fold
CARDIOTOX 88, GenBank X51706
  Effects on Transcription Level: Ribosomal protein L9: +6.0 fold
CARDIOTOX 89, GenBank X53504
  Effects on Transcription Level: Ribosomal protein L12: −2.2 fold
CARDIOTOX 90, GenBank V01270
  Effects on Transcription Level: 18S, 5.8S, and 28S ribosomal RNA's: +7 fold
CARDIOTOX 91, GenBank U10357
  Effects on Transcription Level: Pyruvate dehydrogenase kinase 2 (PDK2): −11.3 fold
CARDIOTOX 92, GenBank J03179
  Effects on Transcription Level: D-Binding Protein (DBP): −1.5 fold
CARDIOTOX 93, GenBank L03294
  Effects on Transcription Level: Lipoprotein lipase: −3.7 fold
CARDIOTOX 94, GenBank X02610
  Effects on Transcription Level: Non-neuronal enolase: +3.1 fold
CARDIOTOX 95, GenBank L10669
  Effects on Transcription Level: Glycogen phosphorylase (muscle isozyme): −3.0 fold
CARDIOTOX 96, GenBank X14209
  Effects on Transcription Level: Cytochrome c oxidase subunit IV: +8.0 fold
CARDIOTOX 97, GenBank M17083
  Effects on Transcription Level: Alpha-globin: +2.9 fold
CARDIOTOX 98, GenBank X06701
  Effects on Transcription Level: Beta-globin: +4.0 fold
CARDIOTOX 99, GenBank AF197916
  Effects on Transcription Level: Myoglobin: +2.2 fold
CARDIOTOX 100, GenBank L38717
  Effects on Transcription Level: Titin: +1.6 fold
CARDIOTOX 101, GenBank V01218
  Effects on Transcription Level: Skeletal muscle actin: −13.1 fold
CARDIOTOX 102, GenBank M11851
  Effects on Transcription Level: Myosin light chain 2 (MLC2): +3.6 fold
CARDIOTOX 103, GenBank X15938
  Effects on Transcription Level: Alpha cardiac myosin heavy chain: −4.8 fold
CARDIOTOX 104, GenBank U77354
  Effects on Transcription Level: Troponin I: +1.6 fold
CARDIOTOX 105, GenBank AF001334
  Effects on Transcription Level: Cardiac calsequestrin: −2.4 fold
CARDIOTOX 106, GenBank M16975
  Effects on Transcription Level: Sulfated glycoprotein 2: −2.2 fold
CARDIOTOX 107, GenBank AB000507
  Effects on Transcription Level: Aquaporin 7: +1.8 fold
CARDIOTOX 108, GenBank X97831
  Effects on Transcription Level: Carnitine/acylcarnitine carrier protein: −2.6 fold
CARDIOTOX 109, GenBank U40628
  Effects on Transcription Level: Glu-Pro Dipeptide Repeat: −3.1 fold
CARDIOTOX 110, GenBank X54737
  Effects on Transcription Level: Cystatin beta: +2.5 fold
CARDIOTOX 111
  Effects on Transcription Level: Novel gene fragment, 593 bp, 90% SI to human calcineurin B-like protein [Z08983]: +2.1 fold
CARDIOTOX 112
  Effects on Transcription Level: Novel gene fragment, 179 bp, 88% SI to human titin [X90568]: −1.8 fold
CARDIOTOX 113
  Effects on Transcription Level: Novel gene fragment, 700 bp, 91% SI to mouse periplakin (PPL) [AF116523]: +2.1 fold
CARDIOTOX 114, GenBank J05029
  Effects on Transcription Level: Long chain acyl-CoA dehydrogenase (LCAD): +1.6 fold
CARDIOTOX 115, GenBank M19936
  Effects on Transcription Level: Sulfated glycoprotein 1 (SGP-1): −2.1 fold
CARDIOTOX 116, GenBank M11670
  Effects on Transcription Level: Catalase: +1.9 fold
CARDIOTOX 117, GenBank AF084186
  Effects on Transcription Level: Alpha-fodrin (A2A) (Nonerythroid spectrin alpha subunit): −1.6 fold
CARDIOTOX 118, GenBank M27902
  Effects on Transcription Level: Cardiac specific sodium channel alpha-subunit: −2.1 fold
CARDIOTOX 119, GenBank U40628
  Effects on Transcription Level: Glu-Pro Dipeptide Repeat: +2.7 fold
CARDIOTOX 120
  Effects on Transcription Level: Novel gene fragment, 200 bp, 64% SI to human KIAA0733 protein [AB018316]: −1.6 fold
CARDIOTOX 121, GenBank L42855
  Effects on Transcription Level: RNA polymerase II transcription factor SIII (p18 subunit): +1.8 fold
CARDIOTOX 122, GenBank L01702
  Effects on Transcription Level: Protein-tyrosine phosphalase (LRP): +1.5 fold
CARDIOTOX 123, GenBank U25264
  Effects on Transcription Level: Skeletal muscle selenoprotein W (SelW): −1.6 fold
CARDIOTOX 124, GenBank X15635
  Effects on Transcription Level: Sarcoplasmic reticulum 2+-Ca-ATPase: −1.8 fold
CARDIOTOX 125, GenBank X53377
  Effects on Transcription Level: Ribosomal protein S7: +1.3 fold
CARDIOTOX 126, GenBank X05300
  Effects on Transcription Level: Ribophorin I: +1.4 fold
CARDIOTOX 127, GenBank X15939
  Effects on Transcription Level: Beta cardiac myosin heavy chain: +1.4 fold
CARDIOTOX 128, GenBank L12380
  Effects on Transcription Level: ADP-ribosylation factor 1: −1.0 fold
CARDIOTOX 129, GenBank U04942
  Effects on Transcription Level: Laminin receptor: −1.5 fold
CARDIOTOX 130
  Effects on Transcription Level: Novel gene fragment, 206 bp, 89% SI to human seryl-tRNA synthetase [X91257]: +1.7 fold
CARDIOTOX 131, GenBank X86086
  Effects on Transcription Level: Annexin VI: +1.3 fold
CARDIOTOX 132
  Effects on Transcription Level: Novel gene fragment, 325 bp, 90% SI to mouse N-RAP [U76618]: +1.4 fold
LD10 dose for three days
  Effects on Transcription Level: Novel gene fragment, 61 bp (CARDIOTOX 134): −1.2 fold
  Effects on Transcription Level: Novel gene fragment, 337 bp (CARDIOTOX 133): +1.0 fold
  Effects on Transcription Level: Novel gene fragment, 378 bp, 88% SI to human coatomer protein (COPA) [U24105] (CARDIOTOX 138): −1.1 fold
LD10 dose for three days, GenBank D16479
  Effects on Transcription Level: Long chain 3-ketoacyl-CoA thiolase (CARDIOTOX 136): −1.1 fold
LD10 dose for three days, GenBank D87671
  Effects on Transcription Level: TATA-binding protein interacting protein 120 (TIP120) (CARDIOTOX 135): +1.4 fold
LD10 dose for three days, GenBank D88250
  Effects on Transcription Level: Serine protease (CARDIOTOX 139): +1.5 fold
LD10 dose for three days, GenBank M34043
  Effects on Transcription Level: Thymosin beta-4 (CARDIOTOX 137): +1.4 fold
